Reference: ChEMBL document CHEMBL3860089, “Design, synthesis, and biological evaluation of α-hydroxyacyl-AMS inhibitors of amino acid adenylation enzymes” (Bioorg Med Chem Lett, 2016)

Legend:
[1] = Inhibition of aminoacyl tRNA synthetase in T7 coupled rabbit reticulocyte lysate assessed as reduction in transcription/translation of luciferase template DNA propagated in Escherichia coli DH5alpha after 90 mins; set-up: species or system Oryctolagus cuniculus
[2] = biological target: T1, Yersiniabactin biosynthetic protein (Yersinia pestis, UniProt A0A2S9PH42)
T1 sequence (A0A2S9PH42 whole entry): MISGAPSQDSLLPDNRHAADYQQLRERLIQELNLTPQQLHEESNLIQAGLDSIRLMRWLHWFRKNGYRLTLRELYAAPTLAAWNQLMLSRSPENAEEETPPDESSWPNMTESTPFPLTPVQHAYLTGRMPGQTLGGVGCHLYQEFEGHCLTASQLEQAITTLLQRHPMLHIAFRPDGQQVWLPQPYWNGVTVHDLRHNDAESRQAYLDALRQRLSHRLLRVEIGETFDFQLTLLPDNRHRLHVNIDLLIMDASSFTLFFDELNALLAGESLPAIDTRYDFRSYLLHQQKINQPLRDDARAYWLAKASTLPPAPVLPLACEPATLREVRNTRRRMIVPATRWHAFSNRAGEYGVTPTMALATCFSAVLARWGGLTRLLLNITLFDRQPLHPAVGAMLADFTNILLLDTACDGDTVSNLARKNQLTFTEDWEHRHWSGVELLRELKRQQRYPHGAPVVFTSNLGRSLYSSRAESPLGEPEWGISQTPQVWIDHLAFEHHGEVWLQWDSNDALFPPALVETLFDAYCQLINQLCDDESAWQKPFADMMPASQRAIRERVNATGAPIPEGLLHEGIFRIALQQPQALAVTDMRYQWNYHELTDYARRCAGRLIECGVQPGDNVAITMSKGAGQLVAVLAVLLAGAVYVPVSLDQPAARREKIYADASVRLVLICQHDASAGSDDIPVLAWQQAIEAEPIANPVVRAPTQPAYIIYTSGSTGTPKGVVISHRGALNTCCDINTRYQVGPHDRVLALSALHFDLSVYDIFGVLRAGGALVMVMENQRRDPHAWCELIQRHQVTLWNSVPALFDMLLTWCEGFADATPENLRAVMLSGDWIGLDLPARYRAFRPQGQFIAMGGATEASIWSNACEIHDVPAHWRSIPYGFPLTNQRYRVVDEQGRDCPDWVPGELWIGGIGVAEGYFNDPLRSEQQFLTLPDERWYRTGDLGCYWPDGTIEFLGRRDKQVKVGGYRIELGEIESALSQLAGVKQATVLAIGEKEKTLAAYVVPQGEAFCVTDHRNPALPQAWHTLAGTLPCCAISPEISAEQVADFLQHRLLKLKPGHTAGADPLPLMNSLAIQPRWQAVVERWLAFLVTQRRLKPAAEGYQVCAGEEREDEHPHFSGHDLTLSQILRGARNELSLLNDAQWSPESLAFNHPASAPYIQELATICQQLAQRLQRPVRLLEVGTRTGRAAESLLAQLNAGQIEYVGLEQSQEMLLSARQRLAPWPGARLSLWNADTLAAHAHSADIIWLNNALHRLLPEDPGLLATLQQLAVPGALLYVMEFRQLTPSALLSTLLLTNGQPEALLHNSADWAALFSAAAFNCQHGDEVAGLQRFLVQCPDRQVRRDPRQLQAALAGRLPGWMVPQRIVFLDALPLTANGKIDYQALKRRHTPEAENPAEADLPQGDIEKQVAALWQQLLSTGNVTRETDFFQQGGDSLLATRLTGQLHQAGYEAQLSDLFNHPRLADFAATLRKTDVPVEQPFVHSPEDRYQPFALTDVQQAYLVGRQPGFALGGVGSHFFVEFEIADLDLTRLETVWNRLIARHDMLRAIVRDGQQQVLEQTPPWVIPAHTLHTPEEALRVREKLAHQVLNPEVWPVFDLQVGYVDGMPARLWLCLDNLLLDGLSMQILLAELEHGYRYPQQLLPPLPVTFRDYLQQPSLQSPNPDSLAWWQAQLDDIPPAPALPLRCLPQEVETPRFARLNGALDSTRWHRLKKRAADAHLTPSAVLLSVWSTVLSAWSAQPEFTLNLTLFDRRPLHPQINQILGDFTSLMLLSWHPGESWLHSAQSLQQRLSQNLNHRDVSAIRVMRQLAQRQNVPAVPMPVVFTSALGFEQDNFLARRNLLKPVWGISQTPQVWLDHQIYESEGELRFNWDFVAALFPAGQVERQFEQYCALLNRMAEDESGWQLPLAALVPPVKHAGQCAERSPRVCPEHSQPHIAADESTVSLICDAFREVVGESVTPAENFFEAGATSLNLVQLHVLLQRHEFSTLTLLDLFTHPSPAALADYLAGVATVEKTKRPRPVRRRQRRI

[3] = biological target: T1, Yersiniabactin biosynthetic protein; conditions: read-out: Ki(app)
[4] = Drug uptake in Bacillus subtilis ATCC 6051 at 100 uM by LC-MS/Ms analysis; format: ADME
[5] = Drug uptake in Mycobacterium smegmatis ATCC 700084 at 100 uM by LC-MS/Ms analysis; format: ADME; conditions: mycolicibacterium smegmatis
[6] = Drug uptake in Escherichia coli ATCC 25922 at 100 uM by LC-MS/Ms analysis; format: ADME; conditions: escherichia coli atcc 25922, 100 µM

Structure (SMILES) | IC50 [1] | IC50 [2] | Ki [3] | Drug uptake ([4]; BLD = below limit of detection) | Drug uptake ([5]; BLD = below limit of detection) | Drug uptake ([6]; BLD = below limit of detection) | Drug uptake [4] | Drug uptake [5] | Drug uptake [6]
Nc1ncnc2c1nc1n2[C@@H]2O[C@H](COS(=O)(=O)NC(=O)[C@@H](O)CCC1)[C@@H](O)[C@H]2O | > 250 µM | > 1000 µM | – | – | – | – | – | – | –
Nc1ncnc2c1ncn2[C@@H]1O[C@H](COS(=O)(=O)NC(=O)[C@@H](O)CS)[C@@H](O)[C@H]1O | 222 µM | 16.5 µM | – | – | – | – | – | – | –
Nc1ncnc2c1nc1n2[C@@H]2O[C@H](COS(=O)(=O)NC(=O)[C@@H](N)CCC1)[C@@H](O)[C@H]2O | > 250 µM | 0.34 µM | 1.7 µM | – | – | – | – | – | –
Nc1ncnc2c1ncn2[C@@H]1O[C@H](COS(=O)(=O)NC(=O)[C@@H](N)CS)[C@@H](O)[C@H]1O | 3.27 µM | 0.04 µM | 0.24 µM | – | – | – | – | – | –
C[C@H](N)C(=O)NS(=O)(=O)OC[C@H]1O[C@@H](n2cnc3c(N)ncnc32)[C@H](O)[C@@H]1O [ALASA] | 0.118 to 0.16 µM | 1.15 µM | 2.5 µM | Bld | Bld | Bld | – | – | –
C[C@H](O)C(=O)NS(=O)(=O)OC[C@H]1O[C@@H](n2cnc3c(N)ncnc32)[C@H](O)[C@@H]1O | 166 µM | > 1000 µM | – | – | – | – | 28 to 53 µM | 28 to 53 µM | 28 to 53 µM
